According to patent US20240285670A1, “THERAPEUTIC TREATMENT OF TUMORS BY BLOCKING THE HEME SYNTHESIS-EXPORT AXIS” (Università degli Studi di Torino, priority 2021, published 2024):

What was measured:
[1] = tested on: FLVCR1a-overexpressing Caco2 cells; assay: TCA cycle flux in Caco2 cells overexpressing FLVCR1a; assay type: cell-based, human
Procedure: (A) TCA cycle flux in Caco2 cells expressing a scramble shRNA untreated or treated with 25 μM hemin for 2 hours. Moreover, the TCA cycle flux of untreated FLVCR1a-silenced Caco2 cells is reported for comparison. Results are expressed as pmol CO2/h/mg protein. Data represent mean±SEM, n=3. For statistical analyses, an unpaired Student's t-test was used to compare the two matched groups; *=p<0.05, ***=p<0.001. […] Results are expressed as pmol CO2/h/mg protein. Data represent mean±SEM, n=3. For statistical analyses, an unpaired Student's t-test was used; *=p<0.05, **=p<0.01. (C) TCA cycle flux in Caco2 cells overexpressing FLVCR1a (indicated as FLVCR1a+) are compared to cells stably transduced with an empty vector. Moreover, the TCA cycle flux of FLVCR1a-overexpressing Caco2 cells treated with 25 μM hemin or 0.5 mM SA for 2 hours is reported. Results are expressed as pmol CO2/h/mg protein. Data represent mean±SEM, n=3. For statistical analyses, an unpaired Student's t-test was used to compare the two matched groups; *=p<0.05, **=p<0.01. SA, succinylacetone. […]
(§1) The glucose flux through TCA cycle was measured by radiolabeling cells with 2 μCi/ml [6-^14C]-glucose (55 mCi/mmol; PerkinElmer, Waltham, MA, USA, catalog n° NEC045X). […] The amount of glucose transformed into CO2 through the TCA cycle was calculated as described (Riganti et al., 2004) and expressed as pmoles CO2/h/mg cell proteins.

Caco2 cells [2] = assay: TCA cycle flux in Caco2 cells; assay type: cell-based, human; details: control (scramble shRNA) Caco2 cells, 25 μM hemin for 2 hours
Excerpt: TCA cycle flux is reported in the centre of the figure and expressed as pmol CO2/h/mg protein. Data represent mean±SEM, n=3. For statistical analyses, an unpaired Student's t-test was used. **=p<0.01. Moreover, TCA cycle enzymes activities are reported in boxes and expressed as mU/mg mitochondrial proteins. Data represent mean±SEM, n=3. For statistical analyses, an unpaired Student's t-test was used; *=p<0.05, ***=p<0.001. […] Results are expressed as pmol CO2/h/mg protein. Data represent mean±SEM, n=3. For statistical analyses, an unpaired Student's t-test was used; *=p<0.05, **=p<0.01.
(A) TCA cycle flux in Caco2 cells expressing a scramble shRNA untreated or treated with 25 μM hemin for 2 hours. Moreover, the TCA cycle flux of untreated FLVCR1a-silenced Caco2 cells is reported for comparison. Results are expressed as pmol CO2/h/mg protein. Data represent mean±SEM, n=3. […] Results are expressed as pmol CO2/h/mg protein. […] Results are expressed as pmol CO2/h/mg protein. […]
as §1

Caco2 cells [3] = assay: Heme content (fluorescence assay) in Caco2 cells; assay type: cell-based, human; details: FLVCR1a-silenced Caco2 cells, 5 mM 5-ALA+0.5 mM SA
Procedure: (A) Heme content in Caco2 cells treated with 5 mM 5-ALA (black bars and white bars) or with 5 mM 5-ALA+0.5 mM SA (light grey outlined bars) for the indicated time points. […] Values are expressed as relative fluorescence intensity. Data represent mean±SEM, n=2. For statistical analyses, a two-way analysis of variance was used, followed by the Bonferroni correction for multiple group comparisons; **=p<0.01, ***=p<0.001. 5-ALA, 5-aminolevulinic acid; SA, succinylacetone. (B) Intracellular 5-ALA levels. […] Values are expressed as peak area/μg proteins. Data represent mean±SEM of n=4 wells pooled from two independent experiments. For statistical analyses, an unpaired Student's t-test was used; **=p<0.01. 5-ALA, 5-aminolevulinic acid. […] Values are expressed as peak area/μg proteins. […] Transcript abundance, normalized to beta-actin mRNA expression, is expressed as a fold increase over a calibrator sample. […] Band intensities were measured by densitometry and normalized to vinculin expression. […]
Intracellular heme concentration was measured using a fluorescence assay, as previously reported (Sinclair et al., 2001). […] Fluorescence (wavelength: excitation 405 nm-emission 660-720 nm) of the resultant protoporphyrin was assessed on a Glomax Multi Detection System (Promega Corporation, Madison WI, USA).
The endogenous protoporphyrin content (measured in parallel unheated samples in oxalic acid) was subtracted. […]

lung tumor LLC cells = assay: LLC cell viability (CellTiter-Fluor) as readout of proliferation; assay type: cell-based, murine; details: 0.5 mM SA at day 0, no medium refresh
tumor cell = details: background art; cited from earlier work

| Compound | reduction of the TCA cycle flux in FLVCR1a-overexpressing cells ([1]; 25 μM hemin for 2 hours) | TCA cycle flux (Caco2 cells [2]) | accumulation of de-novo synthesized heme (Caco2 cells [3]) | cell proliferation (cell viability) (lung tumor LLC cells) | reduction of the TCA cycle flux in FLVCR1a-overexpressing cells ([1]; 0.5 mM SA for 2 hours) | tumor cell survival and proliferation (tumor cell) |
| --- | --- | --- | --- | --- | --- | --- |
| Hemin Ferriprotoporphyrin IX chloride [reference compound] | reverted | increased TCA cycle flux | – | – | – | – |
| CC(=O)CC(=O)CCC(=O)O [SA, 4-6 Dioxoheptanoic acid] | – | – | blunted | effects on cell proliferation were similar | reverted | reduce tumor cell survival and proliferation |
